Data as given in the OPERA property sets (Mansouri et al. 2018).

Details: for log10 BCF / log10 biotransformation half-life (days): fish

SMILES | boiling point [°C] | melting point [°C] | other results
FC(F)=C(F)I | 30 | – | –
Cc1cccc(C)c1NC(=O)C1CCCCN1C (stereo not given) | – | 150 | –
Cn1ccnc1 | 196 | -6 | –
c1ccc2c(c1)COC2 | 192 | – | –
Nc1c2c(nc3ccccc13)CCCC2 | – | 184 | –
CCOC(=O)C(O)(c1ccccc1)c1ccccc1 | – | 34 | –
Cn1c(=O)cc[nH]c1=O | – | – | log10 vapour pressure (mmHg): -3.15
CN1[C@@H](CC(=O)c2ccccc2)CCC[C@H]1C[C@H](O)c1ccccc1 | – | 130 | –
Clc1cccc(Cl)n1 | 211 | 88 | ready biodegradability: not readily biodegradable
CCCCC(C)C(C)=O (stereo not given) | 164 | – | –
CCS(=O)(=O)c1ccc(F)cc1 | – | 41 | –
COC(=O)CCO | 179 | – | –
CC(C)(C)c1ccccc1N | 234 | – | –
Fc1ccccc1Cl | 138 | -43 | –
O=C(Cl)C(F)(F)C(F)(F)C(F)(F)C(F)(F)C(F)(F)C(F)(F)C(F)(F)F | 131 | – | –
CC1CCC2C(=O)OC(=O)C2C1 (stereo not given) | – | – | ready biodegradability: not readily biodegradable
O=C1NC(=O)c2ccccc21 | – | 238 | ready biodegradability: readily biodegradable
C=CCOC1=NS(=O)(=O)c2ccccc21 | – | 138 | ready biodegradability: not readily biodegradable
CCCCc1cc2c(=O)c(C(=O)OC)c[nH]c2cc1OCc1ccccc1 | – | 288 | –
CCC(COC(=O)c1cc(OC)c(OC)c(OC)c1)(c1ccccc1)N(C)C (stereo not given) | – | 79 | –
Oc1c(Cl)cc(Cl)cc1Br | – | 68 | –
COc1cccc(CO)c1 | 252 | – | –
S=C=S | 46 | -112 | log10 Henry constant (atm·m³/mol): -1.84; log10 Koa: 2.28; log10 Koc (L/kg): 2.34; log10 vapour pressure (mmHg): 2.56; log10 BCF: 1.29
NS(=O)(=O)c1ccc(S(=O)(=O)CCCO)c([N+](=O)[O-])c1 | – | 169 | –
CC(=O)[C@@]1(O)CC[C@H]2[C@@H]3C[C@H](C)C4=CC(=O)CC[C@]4(C)[C@H]3CC[C@@]21C | – | 214 | –
O=C(O)c1ccccc1Br | – | 150 | –

SMILES | boiling point [°C] | melting point [°C] | other results
O=C(O)CC(Br)C(=O)O (stereo not given) | – | 161 | –
CCCCN(CCN(CCCC)C(=O)N1CCOCC1)C(=O)N1CCOCC1 | – | 41.5 | –
Cc1ccc2cc(N(C)C)ccc2n1 | 319 | 101 | –
O=NN([O-])c1ccccc1.[NH4+] | – | 164 | –
Clc1cc(Cl)c2c(c1)oc1cc(Cl)cc(Cl)c12 | – | 207 | log10 vapour pressure (mmHg): -7.73
c1ccc2cc3c4ccccc4c4ccccc4c3cc2c1 | 524 | 206 | log10 vapour pressure (mmHg): -10
CCC(C)(C)C(C)C | 115 | -101 | log10 biodegradation half-life (days): 1.72; log10 vapour pressure (mmHg): 1.43
O=P(OCCCl)(OCCCl)OCCCl | 330 | -35 | log10 vapour pressure (mmHg): -1.21; ready biodegradability: not readily biodegradable; log10 BCF: 0.11; log10 biotransformation half-life (days): -0.66
FC(F)(F)C(F)(F)C(F)(F)C(F)(F)C(F)(F)C(F)(F)C(F)(F)C(F)(F)F | 106 | -42 | –
CC(C)(C)C=O | 77.5 | 6 | ready biodegradability: readily biodegradable
O=[N+]([O-])c1c(F)cc(F)cc1F | 184 | 3.5 | –
CCCCCCS | 151 | -81 | log10 vapour pressure (mmHg): 0.624
C/C=C(\C)C(=O)O[C@H]1C[C@@H](OC(C)=O)[C@@]2(C(=O)OC)CO[C@H]3[C@@H](O)[C@@](C)([C@]45O[C@@]4(C)[C@H]4C[C@@H]5O[C@@H]5OC=C[C@@]54O)[C@H]4[C@]1(CO[C@]4(O)C(=O)OC)[C@@H]32 | – | 156 | –
CC(=O)N(C)C | – | – | ready biodegradability: readily biodegradable
O=C(O)c1ccnc2ccccc12 | – | 254 | –
CC1=NOC(=O)/C1=N\Nc1ccccc1Cl | – | 168 | –
FC(F)(F)C(Cl)Br (stereo not given) | 50.2 | -118 | log10 Henry constant (atm·m³/mol): -1.69; log10 vapour pressure (mmHg): 2.48
CCOCc1ccccc1 | 186 | – | log10 vapour pressure (mmHg): -0.0339
CCCCCCCCCCCCCCCCCCCCO | 372 | 66.1 | log10 Koa: 12.1; log10 vapour pressure (mmHg): -7.34
CC(C)S(=O)(=O)O | – | -37 | –
O=S(=O)(Cc1ccccc1)Cc1ccccc1 | – | 152 | –
CCCCCCCCCCCC(=O)OCC(O)C1OCC(O)C1O (stereo not given) | – | – | ready biodegradability: readily biodegradable
CCCC(Br)C(=O)OCC (stereo not given) | 191 | – | –
COc1ccsc1CN(C(=O)CCl)c1c(C)cccc1C | – | 73 | log10 vapour pressure (mmHg): -6.68
O=[N+]([O-])c1cccc2ccccc12 | 304 | 61 | log10 Henry constant (atm·m³/mol): -5.75; log10 vapour pressure (mmHg): -3.32
CCCC(C)C=O (stereo not given) | 117 | – | –

SMILES | boiling point [°C] | melting point [°C] | other results
FC1(F)C(F)(F)C(F)(F)C2(F)C(F)(F)C(F)(F)C(F)(F)C(F)(F)C2(F)C1(F)F (stereo not given) | – | -10 | –
C[Si](C)(C)CCl | 98.5 | – | –
C[Si]1(C)N[Si](C)(C)N[Si](C)(C)N1 | 188 | -10 | –
CCOP(=O)(OCC)OP(=O)(OCC)OCC | – | – | log10 vapour pressure (mmHg): -3.58
O=C1C=CC(=O)O1 | 202 | 52.8 | log10 vapour pressure (mmHg): -0.602; ready biodegradability: readily biodegradable
CCC1c2ccccc2-c2ccccc21 | – | – | log10 biodegradation half-life (days): 1.46
COc1ccc2[nH]c3c(c2c1)CCNC3C (stereo not given) | – | 150 | –
BrC(Br)C(Br)Br | 244 | 0 | log10 vapour pressure (mmHg): -1.7; ready biodegradability: not readily biodegradable; log10 BCF: 0.74
CCc1ccccc1Nc1ccccc1CC | – | 29 | –
CC(C)CON=O | 67 | – | –
Brc1cc(Br)c(Br)c(Br)c1 | 329 | 99.5 | –
FC(F)(F)c1cccc(C(c2ccccc2)(c2ccccc2)n2cncn2)c1 | – | 132 | –
O=P(Oc1ccccc1)(Oc1ccccc1)Oc1ccccc1 | – | 50.5 | log10 vapour pressure (mmHg): -5.2; ready biodegradability: readily biodegradable; log10 BCF: 2.28; log10 biotransformation half-life (days): -0.76
C1CS1 | 55.5 | – | log10 vapour pressure (mmHg): 2.4
CCOc1cccc(C)c1 | 192 | – | –
CCCCCC(C)CCC (stereo not given) | 166 | -99 | –
CC(C)CN=C=S | 160 | – | –
BrCCCCCCCCCCCCCCBr | – | 50.4 | –
BrCCCCCCCCBr | 271 | 15.5 | –
c1cc2c3c(ccc4c3c1CCC4)CCC2 | – | 133 | log10 biotransformation half-life (days): 0.42
Oc1ccc(Cl)cc1Sc1cc(Cl)ccc1O | – | 174 | –
CC(=O)Nc1cccc(Br)c1 | – | – | log10 Koc (L/kg): 2.01
COC1=C(O)C(=O)C(C)=C(O)C1=O | – | 202 | –
CC(C)=C1CCC(C)CC1 (stereo not given) | 173 | – | –
CC(C)(C)c1ccc(C(C)(C)C)o1 | 210 | – | –
CCOC(=O)c1ccccc1C(=O)OCC | 295 | -40.5 | log10 Koc (L/kg): 1.84; log10 vapour pressure (mmHg): -2.68; ready biodegradability: not readily biodegradable

SMILES | boiling point [°C] | melting point [°C] | other results
O=[N+]([O-])c1cc(I)c(O)c(I)c1 | – | 157 | –
C[C@@H](O)C1CC1 | 124 | -32.1 | –
C[C@]12CCC(=O)C=C1C=C[C@@H]1[C@@H]2CC[C@@]2(C)[C@H]1CC[C@@]21CCC(=O)O1 | – | 150 | –
Nc1c(Cl)c(Cl)c(Cl)c(Cl)c1Cl | – | 235 | log10 Koc (L/kg): 4.62; ready biodegradability: not readily biodegradable; log10 BCF: 2.71
Nc1ccc2[nH]ccc2c1 | – | 132 | –
CS(C)(=O)=O | 238 | 109 | –
CCCCCCCCCCCC[C@H](C)O | 284 | 34 | –
CC(O)CN(CC(C)O)CC(C)O (stereo not given) | 305 | 45 | ready biodegradability: not readily biodegradable; log10 BCF: -0.24
Brc1ccc(Oc2cc(Br)c(Br)cc2Br)c(Br)c1 | – | – | log10 Koa: 11.3; log10 vapour pressure (mmHg): -7.51; logP: 7.32; log10 BCF: 6.01; log10 biotransformation half-life (days): 1.95
ClCC(Cl)(Cl)Cl | 130 | -70.2 | log10 Henry constant (atm·m³/mol): -2.6; log10 vapour pressure (mmHg): 1.08
CCCCC(CC)COC(=O)Cl (stereo not given) | 207 | – | log10 vapour pressure (mmHg): -0.775
CCC1CCC(=O)O1 (stereo not given) | 216 | -18 | –
CC(=O)O.CCCCCCCCCCCCNC(=N)N | – | 136 | log10 vapour pressure (mmHg): -6.82
CC(=O)C(=O)O | – | 13.8 | log10 Henry constant (atm·m³/mol): -8.49; log10 vapour pressure (mmHg): 0.111
CC(C)CN=C=O | 106 | – | –
CCC(CC)C(=O)OCCOCCOCCOC(=O)C(CC)CC | – | – | ready biodegradability: readily biodegradable
O=C(O)/C(=C\c1ccccc1)c1ccccc1 | – | 172 | –
CC(C)CC(N)=O | 226 | 137 | –
N#CC#N | – | -27.9 | log10 vapour pressure (mmHg): 3.63
Cc1cc(C)c(Br)c(C)c1 | 225 | -1 | –
Cc1ccc2ccccc2c1N | – | 32 | –
CC(C)COC(N)=O | 207 | 67 | –
CCOC(=O)CI | 179 | – | log10 vapour pressure (mmHg): -0.195
NNc1ccc(S(=O)(=O)O)cc1 | – | 286 | –
N#CCC(N)=C(C#N)C#N | – | 172 | –
CCCCC(C(=O)OCC)C(=O)OCC | 238 | – | –

SMILES | boiling point [°C] | melting point [°C] | other results
Cc1c[nH]c(C)c1 | 168 | – | –
CCSC | 66.7 | -106 | log10 vapour pressure (mmHg): 2.2
NCc1cccc(CN)c1 | 247 | – | ready biodegradability: not readily biodegradable; log10 BCF: 0.43
Cc1cc(O)ccc1Cl | 235 | 67 | log10 vapour pressure (mmHg): -1.3; ready biodegradability: readily biodegradable; log10 BCF: 0.93; log10 biotransformation half-life (days): -1.28
COC(=O)C(Br)CBr (stereo not given) | 206 | – | –
O=S(=O)(Cl)c1ccc(Cl)cc1 | – | 51 | –
CCc1ccc(C)o1 | 118 | – | –
COc1ccc(NC(C)=O)cc1Cl | – | – | log10 Koc (L/kg): 1.95
N#Cc1nc(C#N)nc(C#N)n1 | 262 | 119 | –
CCOP(=S)(OCC)SCn1nnc2ccccc2c1=O | – | 53 | –
NC(=O)c1ccc(O)cc1 | – | 162 | –
[N-]=[N+]=NC(=O)c1ccccc1 | – | 32 | –
CC1=CCC(C(C)(C)O)C[C@@H]1O (stereo not given in full) | 270 | 130 | –
NC(=O)Nc1cccc(C(F)(F)F)c1 | – | – | log10 Koc (L/kg): 1.98
Cc1cc2ncn(C3OC(CO)C(O)C3O)c2cc1C (stereo not given) | – | 198 | –
Nc1ccc(N=Nc2ccccc2)c(N)n1 | – | 139 | log10 Koc (L/kg): 2.32
OCCS | 158 | – | log10 vapour pressure (mmHg): 0.244
CCOC(=O)CCc1ccccc1 | 247 | – | –
C=CC1(C)CC(OC(=O)CO)C2(C)C(C)CCC3(CCC(=O)C32)C(C)C1O (stereo not given) | – | 170 | –
O=C1CN=C(c2ccccc2Cl)c2cc([N+](=O)[O-])ccc2N1 | – | 238 | –
Nc1c(C(=O)O)ccc2c1C(=O)c1ccccc1C2=O | – | 296 | –
CCCCCCCCCCCCCCCCC=O | – | 36 | –
C=C(C)CC(C)C | 81.6 | -124 | log10 vapour pressure (mmHg): 1.98
